{"source": "patent US7799794B2", "about": "“Treatment for cardiovascular disease” (Merck Sharp & Dohme Corp., priority 2000, dated 2010)", "key": {"Sprague-Dawley rats [1]": {"test_system": "Sprague-Dawley rats", "assay": "Enalapril or L-Arginine in hyperuricemic rats on low salt diet: blood pressure (Example 4)", "type": "in vivo, rat", "conditions": "hyperuricemic control rats, OA + low salt diet", "experimental": "Rats were placed on either low salt diet, low salt diet with 2% oxonic acid, low salt diet with oxonic acid and enalapril (1 mg/kg/d in drinking water), or low salt diet with oxonic acid and L-Arginine (1% in drinking water).\n(§1) Am J Physiol 268:F1 164-76, 1995]."}, "Sprague-Dawley rats [2]": {"test_system": "Sprague-Dawley rats", "assay": "Mild hyperuricemia model: 2% oxonic acid on normal salt diet (Example 1)", "type": "in vivo, rat", "experimental": "All studies utilized adult male Sprague-Dawley rats (Simonsen Laboratories, Gilroy Calif.)(200-250 g).\nRats were placed on a normal salt (NaCl 0.26%) diet with or without 2% oxonic acid (Ziegler Bros, Gardners, Pa.) added to the diet and rats were sacrificed at week 7.\nAm J Physiol 268:F1164-76, 1995].\n(§2) Am J Clin Pathol 1957; 28:152.]. Serum blood urea nitrogen was measured by a standard kit (Sigma, St Louis, Mo.).\n(§3) Renal biopsies were fixed in Methyl-Carnoy's, 10% formalin or 100% ethanol and embedded in paraffin. The presence of uric acid crystals was evaluated by staining 4-μm ethanol-fixed sections with de Galantha and modified Von Kossa stains. Kidney tissue from rats with acute uric acid nephropathy, induced with oxonic acid and uric acid administration was used as a positive control [Stavric, B., Johnson, W. J., and Grice, H. C., Uric acid nephropathy: An experimental model, Proc. Soc. Exp. Biol. Med. 130: 512-16 (1969).]. Light microscopy was performed in 4-μm sections of Methyl-Carnoy's fixed tissue stained with periodic acid Schiff (PAS) reagent or with hematoxylin and eosin."}, "Sprague-Dawley rats [3]": {"test_system": "Sprague-Dawley rats", "assay": "Renal findings at 7 weeks: immunohistochemistry and BUN (Example 2)", "type": "in vivo, rat", "conditions": "low NaCl diet", "experimental": "Rats were placed on a low sodium diet (NaCl, 0.125%) with or without 2% oxonic acid for 7 weeks. A third group were administered allopurinol in the drinking water (150 mg/L) with weekly adjustments of the dose depending on the uric acid level.\nas §2, §3\nMethyl-Carnoy's fixed tissue sections were analyzed by indirect immunoperoxidase [Lombardi, D., Gordon , K. L., Polinsky, P., Suga, S., Schwartz, S. M., and Johnson, R. J. Salt sensitive hypertension develops after transient exposure to angiotensin II. Hypertension 33:1013-1019, 1999] staining with the following primary antibodies: OP199, a goat polyclonal antibody against osteopontin (OPN)(gift of C. Giachelli, Univ of Wash., Seattle); ED-1, a monoclonal antibody to rat monocytes and macrophages (Serotec); goat antihuman type III collagen (Southern Biotechnology Associates Inc, Birminghan Ala.); and anti-renin, a mouse antibody to human renin (Sanofi Recherche, Montpellier, France). Sections were incubated with a secondary antibody followed by horseradish peroxidase-conjugated avidin D (Vector Laboratories, Burlingame, Calif.), diaminobenzidine (Sigma) with or without nickel chloride as a chromogen, and counsterstained with methyl green.\nNOS1 was detected on formalin fixed tissue sections with a rabbit anti-rat neuronal nitric oxide synthase (Transduction Laboratories, Lexington, Ky.), followed by a biotinylated secondary antibody, diaminobenzidine with nickel chloride and counterstained with nuclear fast red.\nAll quantification was performed blinded. The tubular expression of osteopontin (OPN), which is a sensitive marker of tubulointerstitial injury, was calculated as the percent of renal cortex occupied by OPN-positive tubules [Lombardi, D., Gordon, K. L., Polinsky, P., Suga, S., Schwartz, S. M., and Johnson, R. J. Salt sensitive hypertension develops after transient exposure to angiotensin II. Hypertension 33:1013-1019, 1999]. Utilizing computer-assisted image analysis software (Optimas V6.2, Media Cybernetics, Silver Springs, Md.) and digitized images, the percent of area occupied by OPN positive tubules per 4 mm^2 field at a magnification of 50× was measured and the mean percent area calculated for each biopsy. The interstitial deposition of collagen type III was calculated as the % of renal cortex occupied by collagen III, noted by immunostaining, by computer image analysis. The mean number of interstitial macrophages (ED-1+cells) in each biopsy was calculated in a blinded manner by counting the total number of positive interstitial cortical cells in 20 sequentially selected 0.25 mm^2 grids at 200× magnification. Renin expression was quantified by the number of glomeruli with positive staining for juxtaglomerular renin using a minimum of 100 glomeruli in each biopsy as previously described [Eng, E., et al., Renal proliferation and phenotypic changes in rats with two-kidney, one-clip Goldblatt hypertension. Am J Hypertens 7:177-185 (1994)]; this has been shown previously to correlate with intrarenal renin content[Eng, E., et al., Renal proliferation and phenotypic changes in rats with two-kidney, one-clip Goldblatt hypertension. Am J Hypertens 7:177-185 (1994)]. […]"}, "Sprague-Dawley rats [4]": {"test_system": "Sprague-Dawley rats", "assay": "Allopurinol intervention or oxonic acid withdrawal in hyperuricemic rats: blood pressure (Example 3)", "type": "in vivo, rat", "conditions": "oxonic acid withdrawn at 7 weeks, LSD continued", "from_the_text": "Rats were placed on the low sodium diet with oxonic acid for 7 weeks, and then were matched based on uric acid level and blood pressure in various groups to either receive allopurinol, have the oxonic acid withdrawn from the diet, or continue the oxonic acid/low salt diet. A control group of six rats were placed on the lowsodium diet alone for 11 weeks. All of these rats were sacrificed at week 11.\nas §1, §2"}, "Sprague-Dawley rats [5]": {"test_system": "Sprague-Dawley rats", "assay": "Cyclosporine nephropathy with or without oxonic acid: body weight, renal function, uric acid, CSA level (Example 5)", "conditions": "7 weeks", "experimental": "Studies were conducted in 20 adult male Sprague-Dawley rats (Simmonsen Laboratories, Gilroy, Calif., USA) weighing 200 to 250 grams. All rats were fed a low salt diet (0.125% NaCl)(Zeigler Bros, Gardners, Pa.), with water ad libitum. […] In order to induce hyperuricemia, oxonic acid 2% was added to low salt diet. Because rats have uricase, an hepatic enzyme which degrades uric acid to allantoin, the blockade of this enzyme by oxonic acid is necessary.\nAfter 7 weeks, rats were placed in individual metabolic cages for 24-hour urine collection. The following day, rats were anesthetized with xylazine and ketamine, serum was collected for creatinine and uric acid measurements, and both kidneys were obtained for histology evaluation. Biopsies were fixed in 10% formalin, 100% ethanol or Methyl Camoy's.\nSerum and urine creatinine were measured by a standard picric acid method (Sigma Diagnostics creatinine kit, St. Louis, Mo.). Serum and urine uric acid were measured by a modified carbonate-phosphotungstate method [Henry, R. J., Sobel, C., and Kim, J., A modified carbonate phosphotungstate method for the determination of uric acid and comparison with the spectophotometric uricase method. Am J Clin Pathol 1957; 28:152.]. Fractional uric acid excretion and creatinine clearance were calculated by standard formulas.\nAll values are expressed as mean±SD, unless otherwise stated. The differences between groups were compared with unpaired Student's t tests."}}, "note": "Marks after values point to notes of the source that are not given here."}
{"molecule": "O=C(O)c1nc(=O)[nH]c(=O)[nH]1", "note": "[oxonic acid]", "values": [{"measurement": "increase in systolic blood pressure over the 7 week dietary period", "setting": "Sprague-Dawley rats [1]", "result": "approximately 20 mm Hg"}, {"measurement": "body weight at the end of the study", "setting": "Sprague-Dawley rats [2]; 2% oxonic acid diet, normal salt diet, 7 weeks, control 394±18", "result": "367.6 ± 17", "unit": "g"}, {"measurement": "urinary uric acid", "setting": "Sprague-Dawley rats [2]; 2% oxonic acid in the diet", "result": "increased two-fold"}, {"measurement": "special stains for uric acid crystals in kidney", "setting": "Sprague-Dawley rats [2]; 2% oxonic acid, 7 weeks", "result": "negative"}, {"measurement": "Renin", "setting": "Sprague-Dawley rats [3]; control 39.6 ± 2.0", "result": "60.9 ± 1.5", "unit": "% positive JGA"}, {"measurement": "NOS-1", "setting": "Sprague-Dawley rats [3]; control 147.2 ± 12.4", "result": "80.4 ± 4.3 positive cells/100 glomeruli"}, {"measurement": "OPN", "setting": "Sprague-Dawley rats [3]; mean±SE, control 0.9 ± 0.06", "result": "1.8 ± 0.06", "unit": "% increase"}, {"measurement": "Type III collagen", "setting": "Sprague-Dawley rats [3]; mean±SE, control 5.4 ± 0.3", "result": "8.8 ± 1.5", "unit": "%"}, {"measurement": "BUN", "setting": "Sprague-Dawley rats [3]; mean±SE, control 14.4 ± 1.2", "result": "23.2 ± 2.3", "unit": "mg/dL"}, {"measurement": "ED-1 (macrophages)", "setting": "Sprague-Dawley rats [3]; mean±SE, control 18.3 ± 1.3", "result": "27.2 ± 1.9", "unit": "cells/mm2"}, {"measurement": "blood pressure and serum uric acid in hypertensive, hyperuricemic rats", "setting": "Sprague-Dawley rats [4]", "result": "reduction in the blood pressure in association with a fall in serum uric acid values"}, {"measurement": "urinary uric acid", "setting": "Sprague-Dawley rats [5]; 24-hour urine, vehicle 2.19 ± 0.66", "result": "5.06 ± 2.81^a mg/day"}, {"measurement": "Serum Uric Acid", "setting": "Sprague-Dawley rats [5]; mean±SD, vehicle 1.62 ± 0.31", "result": "4.08 ± 1.22^a mg/dl"}, {"measurement": "Weight", "setting": "Sprague-Dawley rats [5]; mean±SD, vehicle 422.2 ± 31.2", "result": "421.2 ± 28.8", "unit": "grams"}, {"measurement": "FE urate (fractional excretion of uric acid)", "setting": "Sprague-Dawley rats [5]; vehicle 0.12 ± 0.06", "result": "0.11 ± 0.14"}, {"measurement": "Urate/creatinine (urine)", "setting": "Sprague-Dawley rats [5]; vehicle 0.20 ± 0.08", "result": "0.35 ± 0.27"}, {"measurement": "Serum Creatinine", "setting": "Sprague-Dawley rats [5]; vehicle 0.94 ± 0.24", "result": "0.88 ± 0.19", "unit": "mg/dL"}, {"measurement": "Creatnine Clearance", "setting": "Sprague-Dawley rats [5]; vehicle 1.39 ± 0.73", "result": "1.94 ± 0.73", "unit": "mL/min"}]}
